The target in one assay is benzodiazepine receptors. Kind of assay: specific binding to benzodiazepine receptors, [3H]-diazepam displacement. The following applies: [3H]diazepam 2 nM, pH 7.4, 4° C., 20 minutes. On the procedure: The compounds (I) according to the invention were tested for their affinity for benzodiazepine receptors using radioactive [^3 H]-diazepam.
The assay for specific binding to benzodiazepine receptors was performed according to the method described in the literature (Nature, 266, 732 (1977); European J. Pharmacol., 48, 263 (1978)). Thus, a crude mitochondrial fraction obtained from the cerebral cortex of SD strain male rats aged 9 to 10 weeks was suspended in 50 mM Tris-HCl buffer (pH 7.4), followed by addition of the test drug at several concentration levels and of [^3 H]diazepam (final concentration 2 nM). Each suspension was incubated at 4° C. for 20 minutes and then filtered through a Whatman GF/B glassfiber filter, and the radioactivity of [^3 H]diazepam on the filter was measured with a liquid scintillation counter. In this manner, the IC50 value, namely the concentration of the test drug at which the [^3 H]diazepam binding was inhibited by 50%, was determined.

The subject of the next assay is male rat (SD/JCL). The experiment in a line: antianxiety activity, anticonflict test (Vogel et al.). It counts as in vivo. To be noted: po; orally administered, male rat, 30, 60 or 180 minutes after administration; read-out: Antianxiety activity MED. On the procedure: The antianxiety activity measurement was performed in accordance with Vogel et al. [Psychopharmacologia, 21, 1 (1970)] as follows: An apparatus comprising a large clear box with a stainless steel grid floor and a smaller opaque dark box provided with a drinking tube was arranged such that a rat placed therein could receive, on the sole, electric shocks through the grid floor following each twentieth lick. The test compound was orally administered to each male rat (SD/JCL) deprived of water for 48 hours prior to the test, which rat was then, 30, 60 or 180 minutes after administration, placed in the apparatus mentioned above and the number of licks was recorded over 3 minutes. The increase in the number of licks as compared with a physiological saline group was determined and taken as a measure of antianxiety potency, and the minimum effective dose determined accordingly.

A further assay concerns rats. The experiment in a line: muscle relaxant activity, rotating rod. In kind it is in vivo. To be noted: Rattus norvegicus, 1 min, 50% of rats fall off within 1 minute. How it is done: Groups of 6 rats were used. The rats were placed on a rotating rod with a diameter of 3.5 cm. The rod rotated with a speed of 8 revolutions per minute. […] The dose, ED50, of the test compound as required to make 50% of the rats fall off the rod was calculated [J. Am. Pharmaceutical Association, 46, 208 (1957)].

For the next assay, the system named is mice. Kind of assay: sleep-inducing activity, potentiation of pentobarbital sleep. It counts as in vivo. The following applies: Mus musculus, oral, 30 minutes before pentobarbital 25 mg/kg i.p. On the procedure:
Mice, in groups of eight, were orally administered the test compound and, 30 minutes later, intraperitoneally administered 25 mg/kg of pentobarbital. The loss of righting reflex which lasted for 2 minutes or longer during the 30-minute period following pentobarbital administration was taken as an indication of sleep potentiation. The dose, ED50, of the test compound as required to achieve sleep potentiation in 50% of mice was calculated.

With `COc1ccc(N2C(=O)c3ccc(Cl)cc3C2CC(=O)N2CCC(=NO)CC2)cc1` (centres unmarked), the IC50 on benzodiazepine receptors is 3.47 nM.

On to `COc1ccc(N2C(=O)c3ccc(Cl)cc3C2CC(=O)N2CCC(=O)CC2)cc1` (centres unmarked), for which the IC50 on benzodiazepine receptors is 2.4 nM.

Take `COc1ccc(N2C(=O)c3ccc([N+](=O)[O-])cc3C2CC(=O)N2CCC3(CC2)OCCO3)cc1` (centres unmarked): the IC50 at benzodiazepine receptors stood at 21.9 nM.

Take `COc1ccc(N2C(=O)c3ccc(Cl)cc3C2CC(=O)N2CCC3(CC2)OCCO3)cc1` (centres unmarked): the IC50 on benzodiazepine receptors stood at 8.71 nM.

The molecule `COc1ccc(N2C(=O)c3ccc([N+](=O)[O-])cc3C2CC(=O)N2CCC(=O)CC2)cc1` (centres unmarked) yielded an IC50 on benzodiazepine receptors of 6.16 nM.

As to `COc1ccc(N2C(=O)c3ccc([N+](=O)[O-])cc3C2CC(=O)N2CCC(=NO)CC2)cc1` (centres unmarked), the IC50 on benzodiazepine receptors is 7.94 nM.

Molecule `O=C(CC1c2ccccc2C(=O)N1c1ccc2ccc(Cl)nc2n1)N1CCC(=NO)CC1` (centres unmarked) came in with an IC50 at benzodiazepine receptors of 0.645 nM.

For `CC1(C)COC2(CCN(C(=O)CC3c4ccccc4C(=O)N3c3ccc4ccc(Cl)nc4n3)CC2)OC1` (centres unmarked), the IC50 on benzodiazepine receptors amounted to 2.4 nM.

On benzodiazepine receptors, `O=C(CC1c2ccccc2C(=O)N1c1ccc2ccc(Cl)nc2n1)N1CCC2(CC1)OCCCO2` (centres unmarked) yielded an IC50 of 4.9 nM.

On benzodiazepine receptors, `O=C(CC1c2ccccc2C(=O)N1c1ccc2ccc(Cl)nc2n1)N1CCC2(CC1)SCCCS2` (centres unmarked) had an IC50 of 0.562 nM.

In turn, `O=C(CC1c2ccccc2C(=O)N1c1ccc2ccc(Cl)nc2n1)N1CCC2(CC1)SCCS2` (centres unmarked) had an IC50 at benzodiazepine receptors of 1.23 nM.

Molecule `CC(=O)OC1CCN(C(=O)CC2c3ccccc3C(=O)N2c2ccc3ccc(Cl)nc3n2)CC1` (centres unmarked) came in with an IC50 at benzodiazepine receptors of 0.501 nM.

Regarding `CCC(=O)OC1CCN(C(=O)CC2c3ccccc3C(=O)N2c2ccc3ccc(Cl)nc3n2)CC1` (centres unmarked), the IC50 at benzodiazepine receptors is 1 nM.

In turn, `O=C1CCN(C(=O)CC2c3ccccc3C(=O)N2c2ccc3ccc(Cl)nc3n2)CC1` (centres unmarked) [drawing 16] returned a half-maximal inhibitory concentration (IC50) on benzodiazepine receptors of 0.537 nM.

Turning to `O=C(CC1c2ccccc2C(=O)N1c1ccc2ccc(Cl)nc2n1)N1CCC2(CC1)OCCO2` (centres unmarked) [drawing 17], the IC50 at benzodiazepine receptors amounted to 0.38 nM.

Turning to `COC1(OC)CCN(C(=O)CC2c3ccccc3C(=O)N2c2ccc3ccc(Cl)nc3n2)CC1` (centres unmarked) [drawing 19], the IC50 on benzodiazepine receptors came to 1.29 nM.

At benzodiazepine receptors, `O=C(CC1c2ccccc2C(=O)N1c1ccc2ccc(Cl)nc2n1)N1CCC(O)CC1` (centres unmarked) [drawing 34] registered an IC50 of 0.794 nM.

Turning to `O=C(CC1c2ccccc2C(=O)N1c1ccc2ccc(Cl)nc2n1)N1CCC2(CC1)OCCO2` (centres unmarked) [drawing 36], the minimal effective dose with male rat (SD/JCL) is 5 mg/kg. The ED50 is more than 80 mg/kg in the assay on rats and more than 50 mg/kg in the assay with mice.

As to `O=C1CCN(C(=O)CC2c3ccccc3C(=O)N2c2ccc3ccc(Cl)nc3n2)CC1` (centres unmarked) [drawing 38], the minimal effective dose in the assay on male rat (SD/JCL) was determined as 20 mg/kg. Moreover, the ED50 is more than 80 mg/kg in the assay on rats and 24.3 mg/kg in the assay on mice.

In the case of `COC1(OC)CCN(C(=O)CC2c3ccccc3C(=O)N2c2ccc3ccc(Cl)nc3n2)CC1` (centres unmarked) [drawing 39], the minimal effective dose in the assay with male rat (SD/JCL) was less than 20 mg/kg. Further, the ED50 in the assay on rats was more than 40 mg/kg; in the assay with mice, approximately 50 mg/kg.

Consider `O=C(CC1c2ccccc2C(=O)N1c1ccc2ccc(Cl)nc2n1)N1CCC(O)CC1` (centres unmarked) [drawing 41], for which the minimal effective dose in the assay on male rat (SD/JCL) is more than 30 mg/kg. The ED50 with rats was more than 80 mg/kg; in the assay on mice, 40.2 mg/kg.

As usually defined, the IC50 is the point on the concentration scale where inhibition reaches its midpoint. Read a high IC50 as lower potency. For orientation: ED50 means the dose at which the effect has come halfway, by size or by number of responders.

(Values after patent US4778801A, “Isoindolinone derivatives, production and use thereof” (Takeda Chemical Industries, Ltd., priority 1984, dated 1988).)
